# Data from patent US6670364B2, “Antagonists of MCP-1 function and methods of use thereof” (Telik, Inc., priority 2001, dated 2003).
# How the values were obtained:
# male Wistar rats [1] = assay: Anti-Thy-1 antibody-induced nephritis model, s.c. (Example 19); format: in vivo; conditions: rat; for ED-1 positive cells/glomeruli (mean ± SE): day 7
# Description: The efficacy of the compounds of the present invention was also evaluated in an animal model of nephritis. This model very closely simulates the conditions found in human mesangial proliferative glomerulonephritis.
# Anti-Thy-1 nephritis was induced by intravenous injection of anti-Thy-1-antibody to male Wistar rats. The test compound was subcutaneously administered 2 h before, immediately after, and 5 h after the anti-Thy-1 antibody treatment, and then twice a day for the following 2 days. Anti-MCP-1 antibody was intraperitoneally injected once a day for 3 days. Seven days after the anti-Thy-1 antibody treatment, the rats were sacrificed. The kidneys were perfused with 10% formaldehyde in PBS, surgically removed, and immersed in 10% formaldehyde. The kidneys were then embedded in paraffin for glomerular histopathology or in OCT compound (Miles Inc., Elkhart, Ind.) in liquid nitrogen after immersion in 30% sucrose overnight. Immunohistochemical staining was performed with a mouse anti-rat ED-1 monoclonal antibody. Briefly, 5 μm renal sections were prepared and endogenous peroxidase blocked with 0.3% hydrogen peroxide. The sections were then blocked with Protein Block (DAKO, Japan) and stained with anti-ED-1 antibody for 45 min. The ED-1 antigen was visualized by peroxidase-labeled anti-mouse IgG and diaminobenzidine. The amount of urinary protein was determined with the DC protein assay kit (Bio-Rad, Hercules, Calif.). The effect of a representative test compound on the level of urinary protein excretion and the infiltration of ED-1 positive cells into the glomeruli is shown in Table 10.
# ICR male mice = assay: Thioglycollate-induced inflammation model (Example 17); format: in vivo, mouse; conditions: peritoneal cavity 72 h after thioglycollate; 5 mg/kg, subcutaneous
# Description: 3% Brewer's thioglycollate broth (Difco, Detroit, Mich.) was injected into the peritoneal cavity of ICR male mice, followed by subcutaneous administration of the test compound. The same dose of test compound was again administered immediately after the broth injection and 3 h later. After 72 h, the number of total elicited cells and MOMA2-positive cells in the peritoneal cavity was analyzed using an EPICS XL Beckman Coulter.
# apoE-deficient mice = assay: Apolipoprotein E-deficient mouse model of atherosclerosis (Example 20); format: in vivo
# Description: Apolipoprotein E (apoE) is a component of several plasma lipoproteins, including chylomicrons, VLDL, and HDL. Receptor-mediated catabolism of these lipoprotein particles is mediated through the interaction of apoE with the LDL receptor (LDLR) or with LDLR-related protein (LRP). […] The efficacy of the compounds of the present invention was also evaluated using this animal model.
# Male, 4 week-old apoE-deficient mice were fed on high-fat diet (15% fat, 1.25% cholesterol). The test compound was administered as food admixture for 8 weeks. At 12 week-old, the mice were fasted for 4 hours and then sacrificed under ether anesthesia. Blood was collected in the presence of heparin, and the hearts were perfused in situ with PBS (pH 7.4), followed by 4% paraformaldehyde for 5 min.
# To determine cross-sectional lesion areas, the hearts were embedded in OCT compound and sectioned at 10 μm using cryostat. The sections were stained with oil red O. Each section of the aortic valve was evaluated for oil red O staining by capturing images directly from a RGB camera attached to a light microscope; image analysis was performed with the IPAP-WIN software (Sumika Tekuno, Japan). Five sections were examined for each animal, and the sum of the lesion areas was calculated and expressed as the percent of the total cross-sectional wall area. Total cholesterol was determined with a Determiner assay kit (Kyowa medex, Japan).
# hMCP-1 [2] = molecular target: T1, hMCP-1 (Homo sapiens, UniProt P13500); assay: Inhibition of MCP-1-induced chemotaxis (96-well chamber, Example 16); format: cell-based; conditions: THP-1 cells, 12.5 nM hMCP-1, 2 h, 96-well microchemotaxis chamber
# Description: A 96-well microchemotaxis chamber with a 5 μm-pore size, PVP-coated polycarbonate filter membrane (Neuro Probe Inc., Cabin John, Md.) was used for testing. Compounds were prepared as 10 mM stock solution in DMSO. THP-1 cells (2×10^6 cells/mL) were labeled with 5 μM Calcein AM containing 0.1% F127 (Molecular Probe, Eugene, Oreg.) at 37° C. for 30 min, and then pretreated with compound at room temperature for an additional 30 min. […] The filter membrane was placed over the lower chamber, followed by a silicon gasket and the upper chamber. The pretreated THP-1 cells (4×10^5 cells/50 μL of RPMI1640 medium per well) were added to the upper chamber and incubated in 5% CO2 at 37° C. for 2 h. The migrated cells were determined with a fluorescent plate reader (LJL BioSystems, Sunnyvale, Calif.).
# Target sequence in this assay (P13500 24-99): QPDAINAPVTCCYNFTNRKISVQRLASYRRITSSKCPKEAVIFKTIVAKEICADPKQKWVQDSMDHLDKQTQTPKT
# Target sequence in this assay (P41597 whole entry partner): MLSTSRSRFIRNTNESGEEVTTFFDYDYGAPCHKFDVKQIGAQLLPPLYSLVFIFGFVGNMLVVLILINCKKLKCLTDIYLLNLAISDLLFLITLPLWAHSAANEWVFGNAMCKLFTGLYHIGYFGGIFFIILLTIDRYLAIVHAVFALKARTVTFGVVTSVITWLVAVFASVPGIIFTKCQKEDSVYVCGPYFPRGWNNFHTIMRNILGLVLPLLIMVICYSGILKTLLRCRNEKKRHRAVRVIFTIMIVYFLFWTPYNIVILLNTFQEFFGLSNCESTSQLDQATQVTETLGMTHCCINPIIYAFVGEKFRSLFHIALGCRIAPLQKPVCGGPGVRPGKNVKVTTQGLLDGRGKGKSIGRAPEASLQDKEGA
# hMCP-1 [3] = molecular target: T1, hMCP-1; assay: Inhibition of MCP-1-induced chemotaxis (48-well chamber, Example 21); format: cell-based; set-up: purchased PeproTech; conditions: THP-1 cells, 2.5 nM hMCP-1, 48-well chamber, 2 hr
# Description: A 48-well microchemotaxis chamber with a 5 μm-pore size, PVP-coated polycarbonate filter membrane (Neuro Probe Inc., Cabin John, Md.) was used for testing. Compounds were prepared as 10 mM stock solution in DMSO. THP-1 cells were washed with RPMI 1640 medium supplemented with 0.5% BSA and 25 mM HEPES, pH 7.4, and suspended at a density of 4×10^6 cells/mL in the same medium. A 150 μL aliquot of this suspension was treated with an equal volume of test compound solution and the mixture incubated at 37° C. for 15 min. The lower chamber was loaded with 26 μL of a 2.5 nM solution of hMCP-1 (PeproTech) in medium. The filter membrane was placed over the lower chamber, followed by a silicon rubber gasket and the upper chamber. A 50 μL aliquot of the THP-1 cell suspension containing the test compound was added to the upper chamber and the assembly incubated in a 5% CO2 atmosphere at 37+ C. for 2 hr. The chamber was then disassembled and the cells remaining on the upper surface of the filter were scrapped off with a rubber scrapper. The filter was fixed with methanol, stained with Diff-Quik solution, and mounted on a slide glass. The cells that had migrated across the filter onto the lower surface were then counted by microscopic observation.
# Target sequence in this assay (P13500 24-99): as the sequence (P13500 24-99) above
# male Wistar rats [4] = assay: Anti-Thy-1 antibody induced nephritis model, per os (Example 26); format: in vivo, rat
# Description: Anti-Thy-1 nephritis was induced by intravenous injection of anti-Thy-1-antibody to male Wistar rats. The test compound was per os administered 2 h before, immediately after, and 5 h after the anti-Thy-1 antibody treatment, and then twice a day for the following 2 days. Seven days after the anti-Thy-1 antibody treatment, the rats were sacrificed. The amount of urinary protein was determined with the DC protein assay kit (Bio-Rad, Hercules, Calif.).
# male Lewis rats = assay: Adjuvant arthritis model in rat (Example 22); format: in vivo; conditions: 10 mg/kg p.o. once a day
# Description: Adjuvant arthritis was induced in male Lewis rats as follows. Complete Freund's adjuvant (CFA) was mixed with PBS and 0.1 ml of the resulting emulsion was injected subcutaneously into the foot pad of the right hind paw (day=0). The test compound was administered p.o. at day 0 and then once a day for 26 days. Paw swelling was measured by the increased thickness of the foot pad.
# female Lewis rats [5] = assay: Collagen-induced arthritis model in rat, i.p. (Example 23); format: in vivo
# Description: (§1) Collagen-induced arthritis was induced in female Lewis rats as follows. Rats were injected subcutaneously with the emulsion of bovine collagen type 11 (3.3 mg/kg at day 0 and 1.67 mg/kg at day 7) and complete Freund's adjuvant (CFA) at the base of the tail at day 0 and immunized additionally at day 7. The test compounds were administered i.p. at day 0 and then once a day for 18 days or p.o. (methotrexate) at day 0 and then 3 times a week until day 18. Paw swelling was measured by the increased volume of the legs using a plethysmometer.
# female Lewis rats [6] = assay: Collagen-induced arthritis model in rat, p.o. (Example 24); format: in vivo; conditions: 1 mg/kg p.o. 3 times a week until day 21 (positive control)
# Description: as §1, with “p.o.” for “i.p.”, “twice” for “once”, “21” for “18”, “or” for “or p.o. (methotrexate) at day 0 and then”, “21 was also administered p.o. from day 13 to day 21 in another group.” for “18.”
smiles,measurement,setting,value
"Cc1nn(C)c2ncc(C(=O)NC(=O)Nc3ccc(F)c(C(F)(F)F)c3)cc12 [Compound 11, (1,3-Dimethylpyrazolo[5,4-b]pyridin-5-yl)-N-({[4-fluoro-3-(trifluoromethyl)phenyl]amino}carbonyl)carboxamide]",Urinary Protein,male Wistar rats [1]; 0.1 mg/kg s.c.,182.2 ± 28.0 mg/day
same,ED-1 positive cells/glomeruli (mean ± SE),male Wistar rats [1]; 0.1 mg/kg s.c.,5.3 ± 0.7 cells/glomeruli
same,Urinary Protein,male Wistar rats [1]; 2 mg/kg s.c.,117.4 ± 26.3 mg/day
same,ED-1 positive cells/glomeruli (mean ± SE),male Wistar rats [1]; 2 mg/kg s.c.,2.3 ± 0.6 cells/glomeruli
same,MOMA2-positive Cells (× 10^6),ICR male mice,14.3 ± 1.2 × 10^6
same,Total Cells (× 10^6),ICR male mice,19.7 ± 1.6 × 10^6
same,% Atherosclerotic Lesion (mean ± SD),"apoE-deficient mice; 10 mg/kg as food admixture for 8 weeks, high-fat diet, aortic valve sections, oil red O",18.72 ± 5.27 %
same,body weight vs control,"apoE-deficient mice; apoE-deficient mice, 8 weeks treatment, data not shown",no significant differences
same,percent of atherosclerotic lesion area (in words),"apoE-deficient mice; vs control group, statistically significant",reduced
"Cc1nn(C)c2ncc(C(=O)NC(=O)Nc3ccc(Cl)c(Cl)c3)c(Cl)c12 [Compound 37, N-{[(3,4-dichlorophenyl)amino]carbonyl}(4-chloro-1,3-Dimethylpyrazolo[5,4-b]pyridin-5-yl)carboxamide]",IC50,hMCP-1 [2],12.7 µM
"Cc1nn(C)c2ncc(C(=O)NC(=O)Nc3ccc(F)c(C(F)(F)F)c3)c(N3CCN(C)CC3)c12.Cl [Compound 85, [1,3-Dimethyl-4-(4-methylpiperazinyl)pyrazolo[5,4-b]pyridin-5-yl]-N-({[4-fluoro-3-(trifluoromethyl)phenyl]amino}carbonyl)carboxamide hydrochloride]",IC50,hMCP-1 [3],0.09 µM
same,Urinary Protein (mg/mg creatinine),male Wistar rats [4]; 0.1 mg/kg per os,33.4 ± 5.1 mg/mg creatinine
same,Urinary Protein (mg/mg creatinine),male Wistar rats [4]; 1 mg/kg per os,32.4 ± 5.9 mg/mg creatinine
same,Urinary Protein (mg/mg creatinine),male Wistar rats [4]; 10 mg/kg per os,23.5 ± 7.2 mg/mg creatinine
same,Percent Swelling (foot pad),male Lewis rats; day 11 after immunization,39%
same,Percent Swelling (foot pad),male Lewis rats; day 14 after immunization,40%
same,Percent Swelling (foot pad),male Lewis rats; day 17 after immunization,34%
same,Percent Swelling (foot pad),male Lewis rats; day 21 after immunization,30%
same,Percent Swelling (foot pad),male Lewis rats; day 22 after immunization,26%
same,Percent Swelling (foot pad),male Lewis rats; day 26 after immunization,27%
Cc1nn(C)c2ncc(C(=O)NC(=O)Nc3ccc(C(=O)N4CCOCC4)c(Cl)c3)cc12 [Compound 141],Percent Swelling day 18,female Lewis rats [5]; 10 mg/kg i.p. once a day for 18 days,12.3 ± 1.5 %
"CN(Cc1cnc2nc(N)nc(N)c2n1)c1ccc(C(=O)N[C@@H](CCC(=O)O)C(=O)O)cc1 [methotrexate, reference compound]",Percent Swelling day 18,female Lewis rats [5]; 1 mg/kg p.o. 3 times a week until day 18,8.9 ± 1.2 %
same,Percent Swelling day 14,female Lewis rats [6],−0.4 ± 1.1 %
same,Percent Swelling day 21,female Lewis rats [6],−0.7 ± 1.0 %
